Read-outs that look alike come from different tables or passages of the source. Marks after values point to notes of the source that are not given here.
Legend:
[1] = Compound I Form I solubility in various liquid vehicles; assay type: physicochemical
[2] = Compound I chemical stability in various liquid vehicles at 40° C.; assay type: physicochemical; settings: 40° C. vs −20° C. control
Description: Stability of 3-[(3aR,4R,5S,7aS)-5-{(1R)-1-[3,5-bis(Trifluoromethyl)phenyl]ethoxy}-4-(4-fluorophenyl)-octahydro-2H-isoindol-2-yl]cyclopent-2-en-1-one, (Compound I) in Various Liquid Vehicles

[3] = Pharmacokinetics after oral administration of liquid filled capsules; assay type: in vivo, male Beagle dogs; settings: male, Beagle, dog, plasma, 40 mg, 40 mg oral, Mean ± SD; for AUC(0-t): read-out: AUC0-24
[4] = liquid filled capsules with Imwitor742/Tween80 (75:25), male Beagle dogs
[5] = liquid filled capsules with Imwitor742:Tween80 (50:50), male Beagle dogs
[6] = liquid filled capsules with pure Imwitor742, male Beagle dogs

SMILES: C[C@@H](O[C@H]1CC[C@@H]2CN(C3=CC(=O)CC3)C[C@H]2[C@@H]1c1ccc(F)cc1)c1cc(C(F)(F)F)cc(C(F)(F)F)c1 [Compound I, 3-[(3aR,4R,5S,7aS)-5-{(1R)-1-[3,5-bis(Trifluoromethyl)phenyl]ethoxy}-4-(4-fluorophenyl)-octahydro-2H-isoindol-2-yl]cyclopent-2-en-1-one]
- Solubility ([1]; Form I, 0.5% Methylcellulose, Room Temp): 0.001 mg/g of formulation
- Solubility ([1]; Form I, 1:1 Imwitor:Tween + 1 eq HCl, Room Temp): >57 mg/g of formulation
- Solubility ([1]; Form I, Acconon MC-8, 35° C.): <1 mg/g of formulation
- Solubility ([1]; Form I, Capmul MCM C-8, 35° C.): 53 mg/g of formulation
- Solubility ([1]; Form I, Capmul PG-8, 35° C.): 50 mg/g of formulation
- Solubility ([1]; Form I, Capmul PG-12, 35° C.): 25 mg/g of formulation
- Solubility ([1]; Form I, Capryol PGMC, 30° C.): 29 mg/g of formulation
- Solubility ([1]; Form I, Capryol PGMC, Room Temp): >6 mg/g of formulation
- Solubility ([1]; Form I, Captex 200P, 35° C.): 2 mg/g of formulation
- Solubility ([1]; Form I, Corn Oil, Room Temp): <0.1 mg/g of formulation
- Solubility ([1]; Form I, Cremophor EL, Room Temp): 2 mg/g of formulation
- Solubility ([1]; Form I, Ethanol, Room Temp): 58 mg/g of formulation
- Solubility ([1]; Form I, Gelucire 44/14, 65° C.): 4 mg/g of formulation
- Solubility ([1]; Form I, Glycerin, Room Temp): <0.5 mg/g of formulation
- Solubility ([1]; Form I, Imwitor 308, 35° C.): 58 mg/g of formulation
- Solubility ([1]; Form I, Imwitor 642, 35° C.): 78 mg/g of formulation
- Solubility ([1]; Form I, Imwitor 742, 30° C.): 43 mg/g of formulation
- Solubility ([1]; Form I, Imwitor 742, 35° C.): 46 mg/g of formulation
- Solubility ([1]; Form I, Imwitor 742, Room Temp): >6 mg/g of formulation
- Solubility ([1]; Form I, Imwitor 988, 35° C.): 54 mg/g of formulation
- Solubility ([1]; Form I, Labrafil M1944CS, 35° C.): 4 mg/g of formulation
- Solubility ([1]; Form I, Labrafil M2125CS, 35° C.): 4 mg/g of formulation
- Solubility ([1]; Form I, Labrafil M2125CS, Room Temp): 5 mg/g of formulation
- Solubility ([1]; Form I, Labrasol, 35° C.): 11 mg/g of formulation
- Solubility ([1]; Form I, Labrasol, Room Temp): 7 mg/g of formulation
- Solubility ([1]; Form I, Miglyol 812, Room Temp): 0.4 mg/g of formulation
- Solubility ([1]; Form I, Olive Oil, Room Temp): <0.1 mg/g of formulation
- Solubility ([1]; Form I, PEG 400:water (92:8) + 1 eq HCl, Room Temp): 24 mg/g of formulation
- Solubility ([1]; Form I, PEG 400:water (92:8) + 1 eq NaOH, Room Temp): 1.3 mg/g of formulation
- Solubility ([1]; Form I, PEG 400:water (92:8), Room Temp): 1.0 mg/g of formulation
- Solubility ([1]; Form I, PEG 400, Room Temp): 2 mg/g of formulation
- Solubility ([1]; Form I, Peceol, 35° C.): 19 mg/g of formulation
- Solubility ([1]; Form I, Propylene Glycol, 35° C.): 8 mg/g of formulation
- Solubility ([1]; Form I, Propylene Glycol, Room Temp): 5 mg/g of formulation
- Solubility ([1]; Form I, Soybean Oil, Room Temp): <0.1 mg/g of formulation
- Solubility ([1]; Form I, Tween 20, Room Temp): 2 mg/g of formulation
- Solubility ([1]; Form I, Tween 80, Room Temp): 1 mg/g of formulation
- Solubility ([1]; Form I, Water, Room Temp): <0.0002 mg/g of formulation
- Solubility ([1]; Form I, pH 1.3 aqueous, Room Temp): 0.001 mg/g of formulation
- Solubility ([1]; Form I, pH 2.2 to 10.1 aqueous, Room Temp): <0.0002 mg/g of formulation
- Solubility ([1]; aqueous medium, read-out: aqueous solubility): < 0.2 µg/mL
- solubility in Miglyol 812 ([1]; relative to a fully efficacious amount of solubilized compound in a 500 mg capsule): not sufficiently soluble
- Chemical stability ([2]; 1 mg Compound I/g vehicle, 1:1 Imwitor 742:Tween 80 +0.05% PG + 0.05% BHA, 1 wk): 102.2 % claim
- Chemical stability ([2]; 1 mg Compound I/g vehicle, 1:1 Imwitor 742:Tween 80 +0.05% PG + 0.05% BHA, 18 wk): 94.7 % claim
- Chemical stability ([2]; 1 mg Compound I/g vehicle, 1:1 Imwitor 742:Tween 80 +0.05% PG + 0.05% BHT, 1 wk): 99.4 % claim
- Chemical stability ([2]; 1 mg Compound I/g vehicle, 1:1 Imwitor 742:Tween 80 +0.05% PG + 0.05% BHT, 18 wk): 93.7 % claim
- Chemical stability ([2]; 1 mg Compound I/g vehicle, 1:1 Imwitor 742:Tween 80 +0.05% PG + 0.05% NaSO3, 1 wk): 98.5 % claim
- Chemical stability ([2]; 1 mg Compound I/g vehicle, 1:1 Imwitor 742:Tween 80 +0.1% Ascorbic Acid Palmitate, 1 wk): 94.2 % claim
- Chemical stability ([2]; 1 mg Compound I/g vehicle, 1:1 Imwitor 742:Tween 80 +0.1% Ascorbic Acid Palmitate, 4 wk): 89.4 % claim
- Chemical stability ([2]; 1 mg Compound I/g vehicle, 1:1 Imwitor 742:Tween 80 +0.1% BHA, 1 wk): 98.4 % claim
- Chemical stability ([2]; 1 mg Compound I/g vehicle, 1:1 Imwitor 742:Tween 80 +0.1% BHA, 4 wk): 96.1 % claim
- Chemical stability ([2]; 1 mg Compound I/g vehicle, 1:1 Imwitor 742:Tween 80 +0.1% Propyl Gallate, 1 wk): 99.6 % claim
- Chemical stability ([2]; 1 mg Compound I/g vehicle, 1:1 Imwitor 742:Tween 80 +0.1% Propyl Gallate, 4 wk): 97.7 % claim
- Chemical stability ([2]; 1 mg Compound I/g vehicle, 1:1 Imwitor 742:Tween 80 +0.1% Propyl Gallate, 18 wk): 93.1 % claim
- Chemical stability ([2]; 1 mg Compound I/g vehicle, 1:1 Imwitor 742:Tween 80 +0.1% α-tocopherol, 1 wk): 86.7 % claim
- Chemical stability ([2]; 1 mg Compound I/g vehicle, 1:1 Imwitor 742:Tween 80 +0.1% α-tocopherol, 4 wk): 71.1 % claim
- Chemical stability ([2]; 1 mg Compound I/g vehicle, 1:1 Imwitor 742:Tween 80, 1 wk): 95.2 % claim
- Chemical stability ([2]; 1 mg Compound I/g vehicle, 1:1 Imwitor 742:Tween 80, 4 wk): 90.4 % claim
- Chemical stability ([2]; 1 mg Compound I/g vehicle, 1:1 Imwitor 742:Tween 80, 5 wk): 83.8 % claim
- Chemical stability ([2]; 1 mg Compound I/g vehicle, 1:1 Imwitor 742:Tween 80, 18 wk): 73.7 % claim
- Chemical stability ([2]; 1 mg Compound I/g vehicle, 6:4 Imwitor 742:Propylene Glycol, 1 wk): 100.2 % claim
- Chemical stability ([2]; 1 mg Compound I/g vehicle, 6:4 Imwitor 742:Propylene Glycol, 2 wk): 100.6 % claim
- Chemical stability ([2]; 1 mg Compound I/g vehicle, 6:4 Imwitor 742:Propylene Glycol, 4 wk): 100.0 % claim
- Chemical stability ([2]; 1 mg Compound I/g vehicle, 6:4 Imwitor 742:Propylene Glycol, 8 wk): 100.6 % claim
- Chemical stability ([2]; 1 mg Compound I/g vehicle, 9:1 Imwitor 742:Tween 80, 1 wk): 99.6 % claim
- Chemical stability ([2]; 1 mg Compound I/g vehicle, 9:1 Imwitor 742:Tween 80, 9.5 wk): 96.4 % claim
- Chemical stability ([2]; 1 mg Compound I/g vehicle, Capmul MCM C8, 1 wk): 99.0 % claim
- Chemical stability ([2]; 1 mg Compound I/g vehicle, Capmul MCM C8, 32.5 wk): 78.1 % claim
- Chemical stability ([2]; 1 mg Compound I/g vehicle, Capmul PG-8, 1 wk): 99.7 % claim
- Chemical stability ([2]; 1 mg Compound I/g vehicle, Imwitor 742, 1 wk): 99.8 % claim
- Chemical stability ([2]; 1 mg Compound I/g vehicle, Imwitor 742, 5 wk): 98.8 % claim
- Chemical stability ([2]; 1 mg Compound I/g vehicle, Imwitor 742, 9.5 wk): 99.8 % claim
- Chemical stability ([2]; 1 mg Compound I/g vehicle, Imwitor 742, 32.5 wk): 97.0 % claim
- Chemical stability ([2]; at 10 mg/g, Imwitor 742 + 0.75 eq HCl, 1 wk): 100.6 % claim
- Chemical stability ([2]; at 10 mg/g, Imwitor 742:Tween 80 +0.75 eq Benzenesulfonic Acid (acid not completely dissolved), 1 wk): 99.1* % claim
- Chemical stability ([2]; at 10 mg/g, Imwitor 742:Tween 80 +0.75 eq HCl, 1 wk): 95.2 % claim
- Chemical stability ([2]; at 10 mg/g, Imwitor 742:Tween 80 +0.75 eq Phosphoric Acid, 1 wk): 96.4 % claim
- Chemical stability ([2]; at 10 mg/g, Imwitor 742:Tween 80 +0.75 eq Sulfuric Acid, 1 wk): 82.9 % claim
- Chemical stability ([2]; at 10 mg/g, PEG 400 + 0.75 eq HCl, 1 wk): 60.3 % claim
- Chemical stability ([2]; at 10 mg/g, Propylene Glycol + 0.75 eq HCl, 1 wk): 95.2 % claim
- Cmax [3, 4]: 4.06 ± 0.49 µM
- Tmax [3, 4]: 3.33 ± 1.03 h
- AUC(0-t) [3, 4]: 65.4 ± 14.7 µM·h
- Cmax [3, 5]: 3.04 ± 0.44 µM
- Tmax [3, 5]: 3.67 ± 0.82 h
- AUC(0-t) [3, 5]: 49 ± 11.5 µM·h
- Cmax [3, 6]: 4.22 ± 0.54 µM
- Tmax [3, 6]: 4.67 ± 1.63 h
- AUC(0-t) [3, 6]: 69 ± 14.2 µM·h
